# Toxic doses and inconclusive results are not listed.
# System: L1210 leukemia ip in BDF1 mice, survival T/C
# Assay: NCI In Vivo Anticancer Drug Screen. Data for tumor model L1210 Leukemia (intraperitoneal) in B6D2F1 (BDF1) mice
# Details: higher = longer survival
# Outline: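 Antitumor effect is assessed in tumor-bearing animals. Survival in the compound arm is compared with a vehicle-dosed control arm and expressed as their quotient.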
# [1] = endpoint: mean survival time, dose: 100.0 mg/kg/injection, schedule: Q01DX009 (ip), vehicle: Klucel (hydroxypropylcellulose) (HPC)
# [2] = endpoint: mean survival time, dose: 200.0 mg/kg/injection, schedule: Q01DX009 (ip), vehicle: Klucel (hydroxypropylcellulose) (HPC)
# [3] = endpoint: mean survival time, dose: 100.0 mg/kg/injection, schedule: Q01DX001 (ip), vehicle: saline
# [4] = endpoint: mean survival time, dose: 100.0 mg/kg/injection, schedule: Q04DX003 (ip), vehicle: saline with Tween-80
# [5] = endpoint: mean survival time, dose: 200.0 mg/kg/injection, schedule: Q01DX001 (ip), vehicle: saline
# [6] = endpoint: mean survival time, dose: 200.0 mg/kg/injection, schedule: Q04DX003 (ip), vehicle: saline with Tween-80
# [7] = endpoint: mean survival time, dose: 400.0 mg/kg/injection, schedule: Q01DX009 (ip), vehicle: Klucel (hydroxypropylcellulose) (HPC)
# [8] = endpoint: mean survival time, dose: 12.5 mg/kg/injection, schedule: Q04DX003 (ip), vehicle: saline
# [9] = endpoint: mean survival time, dose: 25.0 mg/kg/injection, schedule: Q04DX003 (ip), vehicle: saline
# [10] = endpoint: mean survival time, dose: 50.0 mg/kg/injection, schedule: Q04DX003 (ip), vehicle: saline
# [11] = endpoint: mean survival time, dose: 100.0 mg/kg/injection, schedule: Q01DX009 (ip), vehicle: saline with Tween-80
# [12] = endpoint: mean survival time, dose: 200.0 mg/kg/injection, schedule: Q01DX009 (ip), vehicle: saline with Tween-80
# [13] = endpoint: mean survival time, dose: 400.0 mg/kg/injection, schedule: Q01DX009 (ip), vehicle: saline with Tween-80
# [14] = endpoint: mean survival time, dose: 100.0 mg/kg/injection, schedule: Q04DX003 (ip), vehicle: saline
# [15] = endpoint: mean survival time, dose: 200.0 mg/kg/injection, schedule: Q04DX003 (ip), vehicle: saline
# [16] = endpoint: mean survival time, dose: 50.0 mg/kg/injection, schedule: Q01DX009 (ip), vehicle: saline
# [17] = endpoint: mean survival time, dose: 100.0 mg/kg/injection, schedule: Q01DX009 (ip), vehicle: saline
# [18] = endpoint: mean survival time, dose: 200.0 mg/kg/injection, schedule: Q01DX009 (ip), vehicle: saline
smiles,measurement,setting,value
CC(=O)OC1COC(NC(=O)N(CCCl)N=O)C(OC(C)=O)C1OC(C)=O (stereo unspecified),T/C,"endpoint: mean survival time, dose: 9.0 mg/kg/injection, schedule: Q01DX001 (ip), vehicle: saline with Tween-80",211 % of control
same,T/C,"endpoint: mean survival time, dose: 13.0 mg/kg/injection, schedule: Q01DX001 (ip), vehicle: saline with Tween-80",284 % of control
same,T/C,"endpoint: mean survival time, dose: 20.0 mg/kg/injection, schedule: Q01DX001 (ip), vehicle: saline with Tween-80",459 % of control
same,T/C,"endpoint: mean survival time, dose: 30.0 mg/kg/injection, schedule: Q01DX001 (ip), vehicle: saline with Tween-80",294 % of control
COC(=O)N/N=C/c1c[nH]c2ccccc12,T/C,[1],94 % of control
same,T/C,[2],106 % of control
CCN(CC)CC1CO1 (stereo unspecified),T/C,"endpoint: mean survival time, dose: 7.5 mg/kg/injection, schedule: Q01DX009 (ip), vehicle: saline",102 % of control
same,T/C,"endpoint: mean survival time, dose: 15.0 mg/kg/injection, schedule: Q01DX009 (ip), vehicle: saline",97 % of control
CC(O)(c1ccccc1)c1ccccc1,T/C,"endpoint: mean survival time, dose: 50.0 mg/kg/injection, schedule: Q01DX001 (ip), vehicle: saline",95 % of control
same,T/C,[3],101 % of control
same,T/C,[4],100 % of control
same,T/C,[5],97 % of control
same,T/C,[6],100 % of control
same,T/C,"endpoint: mean survival time, dose: 400.0 mg/kg/injection, schedule: Q01DX001 (ip), vehicle: saline",97 % of control
same,T/C,"endpoint: mean survival time, dose: 400.0 mg/kg/injection, schedule: Q04DX003 (ip), vehicle: saline with Tween-80",110 % of control
COc1ccc(NC(=O)c2cccc(C(=O)Nc3ccc(OC)cc3)c2)cc1,T/C,[1],88 % of control
same,T/C,"endpoint: mean survival time, dose: 100.0 mg/kg/injection, schedule: Q04DX003 (ip), vehicle: Klucel (hydroxypropylcellulose) (HPC)",93 % of control
same,T/C,[2],97 % of control
same,T/C,"endpoint: mean survival time, dose: 200.0 mg/kg/injection, schedule: Q04DX003 (ip), vehicle: Klucel (hydroxypropylcellulose) (HPC)",88 % of control
same,T/C,[7],97 % of control
same,T/C,"endpoint: mean survival time, dose: 400.0 mg/kg/injection, schedule: Q04DX003 (ip), vehicle: Klucel (hydroxypropylcellulose) (HPC)",93 % of control
Cc1cccc(NC(=S)NCc2ccco2)c1,T/C,[1],96 % of control
same,T/C,[2],93 % of control
same,T/C,[7],91 % of control
NNc1nnc(Cl)cc1N,T/C,"endpoint: mean survival time, dose: 25.0 mg/kg/injection, schedule: Q04DX003 (ip), vehicle: saline with Tween-80",102 % of control
same,T/C,"endpoint: mean survival time, dose: 50.0 mg/kg/injection, schedule: Q04DX003 (ip), vehicle: saline with Tween-80",104 % of control
same,T/C,[4],113 % of control
C=CCNCCN1CCN(CCCN2c3ccccc3Sc3ccc(C(F)(F)F)cc32)CC1,T/C,"endpoint: mean survival time, dose: 6.25 mg/kg/injection, schedule: Q04DX003 (ip), vehicle: saline",106 % of control
same,T/C,"endpoint: mean survival time, dose: 12.5 mg/kg/injection, schedule: Q01DX009 (ip), vehicle: saline",103 % of control
same,T/C,[8],98 % of control
same,T/C,"endpoint: mean survival time, dose: 25.0 mg/kg/injection, schedule: Q01DX009 (ip), vehicle: saline",102 % of control
same,T/C,[9],102 % of control
same,T/C,[10],96 % of control
CC12CCC(=O)C=C1CCC1C2CCC2(C)C(OC(=O)CN3CC3)CCC12 (stereo unspecified),T/C,"endpoint: mean survival time, dose: 100.0 mg/kg/injection, schedule: Q01DX001 (sc), vehicle: steriod suspending solution",101 % of control
same,T/C,"endpoint: mean survival time, dose: 200.0 mg/kg/injection, schedule: Q01DX001 (sc), vehicle: steriod suspending solution",97 % of control
same,T/C,"endpoint: mean survival time, dose: 400.0 mg/kg/injection, schedule: Q01DX001 (sc), vehicle: steriod suspending solution",103 % of control
C=C1N(S(=O)(=O)c2ccc(C)cc2)C(=O)OC12CCCCC2,T/C,[11],95 % of control
same,T/C,[12],103 % of control
same,T/C,[13],105 % of control
CSCCC(C#N)c1ccccc1 (stereo unspecified),T/C,"endpoint: mean survival time, dose: 50.0 mg/kg/injection, schedule: Q01DX009 (ip), vehicle: saline with Tween-80",93 % of control
same,T/C,[11],104 % of control
same,T/C,[4],103 % of control
same,T/C,[14],103 % of control
same,T/C,[12],110 % of control
same,T/C,[6],97 % of control
same,T/C,[15],97 % of control
O=C1Nc2ccc3c(c2/C1=C\c1cc2c(cc1Br)OCO2)OCO3,T/C,"endpoint: mean survival time, dose: 50.0 mg/kg/injection, schedule: Q01DX001 (ip), vehicle: alcohol",93 % of control
same,T/C,"endpoint: mean survival time, dose: 100.0 mg/kg/injection, schedule: Q01DX001 (ip), vehicle: alcohol",93 % of control
same,T/C,"endpoint: mean survival time, dose: 200.0 mg/kg/injection, schedule: Q01DX001 (ip), vehicle: alcohol",98 % of control
same,T/C,"endpoint: mean survival time, dose: 400.0 mg/kg/injection, schedule: Q01DX001 (ip), vehicle: alcohol",96 % of control
CCOC(=O)c1ccc(NC(=O)Oc2ccc(C(=O)OC)cc2)cc1,T/C,[1],102 % of control
same,T/C,[2],95 % of control
same,T/C,[7],100 % of control
CCCCN(C)N=Nc1ccc(CCC(=O)OCC)cc1,T/C,"endpoint: mean survival time, dose: 72.5 mg/kg/injection, schedule: Q01DX009 (ip), vehicle: saline with Tween-80",121 % of control
same,T/C,"endpoint: mean survival time, dose: 177.0 mg/kg/injection, schedule: Q01DX009 (ip), vehicle: other",117 % of control
same,T/C,"endpoint: mean survival time, dose: 187.0 mg/kg/injection, schedule: Q01DX Z (ip), vehicle: saline",117 % of control
same,T/C,"endpoint: mean survival time, dose: 207.0 mg/kg/injection, schedule: Q01DX001 (ip), vehicle: saline with Tween-80",111 % of control
same,T/C,"endpoint: mean survival time, dose: 266.0 mg/kg/injection, schedule: Q01DX007 (ip), vehicle: saline",160 % of control
same,T/C,"endpoint: mean survival time, dose: 290.0 mg/kg/injection, schedule: Q01DX009 (ip), vehicle: saline with Tween-80",171 % of control
same,T/C,"endpoint: mean survival time, dose: 400.0 mg/kg/injection, schedule: Q01DX007 (ip), vehicle: saline",171 % of control
same,T/C,"endpoint: mean survival time, dose: 400.0 mg/kg/injection, schedule: Q01DX009 (ip), vehicle: other",162 % of control
same,T/C,"endpoint: mean survival time, dose: 414.5 mg/kg/injection, schedule: Q01DX001 (ip), vehicle: saline with Tween-80",119 % of control
same,T/C,"endpoint: mean survival time, dose: 600.0 mg/kg/injection, schedule: Q01DX009 (ip), vehicle: other",179 % of control
same,T/C,"endpoint: median survival time, dose: 200.0 mg/kg/injection, schedule: Q04DX003 (ip), vehicle: Klucel (hydroxypropylcellulose) (HPC)",111 % of control
same,T/C,"endpoint: median survival time, dose: 800.0 mg/kg/injection, schedule: Q01DX009 (ip), vehicle: saline",187 % of control
CS(=O)(=O)OCCCN(CCCOS(C)(=O)=O)c1ccc(C=Nc2ccc(-c3csc(COc4ccc(Cl)cc4)n3)cc2)cc1,T/C,[11],97 % of control
same,T/C,[12],94 % of control
same,T/C,[13],94 % of control
CCCCCCCCCCNC(=O)C[n+]1cccc(C(N)=O)c1,T/C,[8],86 % of control
same,T/C,[9],89 % of control
same,T/C,[10],102 % of control
O=C(O)c1ccc([N+](=O)[O-])c(P(=O)(O)O)c1,T/C,"endpoint: mean survival time, dose: 75.0 mg/kg/injection, schedule: Q01DX001 (ip), vehicle: saline",96 % of control
same,T/C,"endpoint: mean survival time, dose: 150.0 mg/kg/injection, schedule: Q01DX001 (ip), vehicle: saline",109 % of control
CCS(=O)(=O)N(CC(=O)O)Cc1ccccc1,T/C,[16],100 % of control
same,T/C,[17],104 % of control
same,T/C,[14],100 % of control
same,T/C,[18],93 % of control
same,T/C,[15],96 % of control
same,T/C,"endpoint: mean survival time, dose: 300.0 mg/kg/injection, schedule: Q01DX009 (ip), vehicle: saline",95 % of control
same,T/C,"endpoint: mean survival time, dose: 400.0 mg/kg/injection, schedule: Q04DX003 (ip), vehicle: saline",94 % of control
CC1CCCCN1CC(Cl)(Cl)Cl (stereo unspecified),T/C,[3],89 % of control
same,T/C,[5],94 % of control
Oc1c(Cl)cc(Cl)cc1CNCc1ccccc1,T/C,"endpoint: mean survival time, dose: 100.0 mg/kg/injection, schedule: Q01DX001 (ip), vehicle: other",93 % of control
same,T/C,"endpoint: mean survival time, dose: 100.0 mg/kg/injection, schedule: Q04DX003 (ip), vehicle: other",110 % of control
same,T/C,"endpoint: mean survival time, dose: 200.0 mg/kg/injection, schedule: Q01DX001 (ip), vehicle: other",94 % of control
same,T/C,"endpoint: mean survival time, dose: 200.0 mg/kg/injection, schedule: Q04DX003 (ip), vehicle: other",102 % of control
same,T/C,"endpoint: mean survival time, dose: 400.0 mg/kg/injection, schedule: Q01DX001 (ip), vehicle: other",90 % of control
same,T/C,"endpoint: mean survival time, dose: 400.0 mg/kg/injection, schedule: Q04DX003 (ip), vehicle: other",110 % of control
Cc1cc2c(-c3ccccc3)c(C(=O)c3ccccc3)c(C(=O)c3ccccc3)c(-c3ccccc3)c2cc1C,T/C,"endpoint: mean survival time, dose: 100.0 mg/kg/injection, schedule: Q01DX001 (ip), vehicle: saline with Tween-80",89 % of control
same,T/C,"endpoint: mean survival time, dose: 200.0 mg/kg/injection, schedule: Q01DX001 (ip), vehicle: saline with Tween-80",89 % of control
same,T/C,"endpoint: mean survival time, dose: 400.0 mg/kg/injection, schedule: Q01DX001 (ip), vehicle: saline with Tween-80",89 % of control
CCCOP(OCCC)OCCC,T/C,[16],93 % of control
same,T/C,[17],101 % of control
same,T/C,[14],103 % of control
same,T/C,[18],98 % of control
same,T/C,[15],95 % of control
